In patent publication US9884832B2 (priority 2011, dated 2018):
Like-named read-outs stand apart in the source and are kept apart here.

Key:
[1] = target: AM2 V27A (valine→alanine mutation at residue 27 in the M2 protein) (Influenza A virus, UniProt P0DOF5, V27A); format: cell-based, influenza virus A/Udorn/72
[2] = target: AM2 S31N (serine→asparagine mutation at residue 31 in the M2 protein) (Influenza A virus, UniProt P0DOF5, S31N); format: cell-based, influenza virus A/Udorn/72

Row | SMILES | V27A OOcyte Inhibition at 100 uM (%) [1] | S31N OOcyte Inhibition at 100 uM (%) [2] | V27A OOcyte Inhibition at 100 uM (%) ([1]; pH 5.5) | S31N OOcyte Inhibition at 100 uM (%) ([2]; pH 5.5)
1 | COc1ccc(CNC23CC4CC(CC(C4)C2)C3)s1 [Example 75a, N-((5-methoxythiophen-2-yl)methyl)adamantan-1-amine] | B (key: (A)=31-95%; (B)=0-30%) | A (key: (A)=31-95%; (B)=0-30%) |  | 
2 | c1cc2sc(CNC34CC5CC(CC(C5)C3)C4)cc2s1 [Example 81, Adamantan-1-yl-thieno[3,2-b]thiophen-2-ylmethyl-amine] |  |  | B (key: (A)=31-95%; (B)=0-30%) | A (key: (A)=31-95%; (B)=0-30%)
3 | Cc1ncc(-c2ccc(CNC34CC5CC(CC(C5)C3)C4)s2)s1 [Example 154a, N-((5-(2-methylthiazol-5-yl)thiophen-2-yl)methyl)adamantan-1-amine] | A (key: (A)=31-95%; (B)=0-30%) | A (key: (A)=31-95%; (B)=0-30%) |  | 
4 | Fc1ccc(CNC23CC4CC(CC(C4)C2)C3)c(F)c1 [Example 54, Adamantan-1-yl-(2,4-difluoro-benzyl)-amine] |  |  | B (key: (A)=31-95%; (B)=0-30%) | B (key: (A)=31-95%; (B)=0-30%)
5 | OC1CCN(C2C3CC4CC(C3)CC2C4)CC1 (stereo not shown) [Example 104, 1-Adamantan-2-yl-piperidin-4-ol] |  |  | B (key: (A)=31-95%; (B)=0-30%) | B (key: (A)=31-95%; (B)=0-30%)
6 | c1csc(-c2csc(CNC34CC5CC(CC(C5)C3)C4)c2)c1 [Example 140a, Adamantan-1-yl-[2,3′]bithiophenyl-5′-ylmethyl-amine] | A (key: (A)=31-95%; (B)=0-30%) | A (key: (A)=31-95%; (B)=0-30%) |  | 
7 | c1csc(CNC23CC4CC(CC(C4)C2)C3)c1 [Example 70a, Adamantan-1-yl-thiophen-2-ylmethyl-amine] | B (key: (A)=31-95%; (B)=0-30%) | B (key: (A)=31-95%; (B)=0-30%) |  | 
8 | COc1ccccc1CNC12CC3CC(CC(C3)C1)C2 [Example 29, Adamantan-1-yl-(2-methoxy-benzyl)-amine] |  |  | B (key: (A)=31-95%; (B)=0-30%) | B (key: (A)=31-95%; (B)=0-30%)
9 | c1csc(-c2ncc(CNC34CC5CC(CC(C5)C3)C4)cn2)c1 [Example 61a, N-((2-(thiophen-2-yl)pyrimidin-5-yl)methyl)adamantan-1-amine] | B (key: (A)=31-95%; (B)=0-30%) | A (key: (A)=31-95%; (B)=0-30%) |  | 
10 | N#Cc1ccc(CNC23CC4CC(CC(C4)C2)C3)cc1 [Example 14, 4-(Adamantan-1-ylaminomethyl)-benzonitrile] |  |  | B (key: (A)=31-95%; (B)=0-30%) | B (key: (A)=31-95%; (B)=0-30%)
11 | O=C(Oc1ccc(CNC23CC4CC(CC(C4)C2)C3)cc1)C1CC1 [Example 34, Cyclopropanecarboxylic acid 4-(adamantan-1-ylaminomethyl)-phenyl ester] |  |  | B (key: (A)=31-95%; (B)=0-30%) | B (key: (A)=31-95%; (B)=0-30%)
12 | c1coc(-c2ncc(CNC34CC5CC(CC(C5)C3)C4)cn2)c1 [Example 62a, N-((2-(furan-2-yl)pyrimidin-5-yl)methyl)adamantan-1-amine] | B (key: (A)=31-95%; (B)=0-30%) | A (key: (A)=31-95%; (B)=0-30%) |  | 
13 | c1ccc(CNC23CC4CC(CC(C4)C2)C3)cc1 [Example 8, Adamantan-1-yl-benzyl-amine] |  |  | B (key: (A)=31-95%; (B)=0-30%) | B (key: (A)=31-95%; (B)=0-30%)
14 | Oc1c(F)cc(CNC23CC4CC(CC(C4)C2)C3)cc1Cl [Example 68, 4-(Adamantan-1-ylaminomethyl)-2-chloro-6-fluoro-phenol] |  |  | B (key: (A)=31-95%; (B)=0-30%) | B (key: (A)=31-95%; (B)=0-30%)
